Test results published in US8937183B2, “Detection of hydrogen peroxide” (Promega Corporation, priority 2011, dated 2015).

Key:
[1] = Signal differences in mammalian cell culture media (DMEM) versus physiological buffer (HBSS) with hydrogen peroxide; type: biochemical; conditions: 30 minutes
Procedure: A 100 μl sample of 4 mg/ml DMSO solution of PBI 4458 was diluted to 500 μl with HBSS buffer (Invitrogen 14025-092), and 50 μl added to wells A1-A9 of a fresh microtiter plate (“DISP”). 100 μl 4 mg/ml DMSO solution of PBI 4472 was diluted to 500 μl with HBSS, and 50 μl added to wells E1-E9. 90 μl HBSS was added to wells A1-B9 of two new microtiter plates labeled “RT” and “37C”. 90 μl DMEM was added to wells C1-D9 of both plates.
A sample of 30% hydrogen peroxide (Sigma H1009-5 ml) was diluted to 1 mM with Nanopure water, and 7.5 μl 1 mM hydrogen peroxide diluted to 1.5 ml with HBSS, and 90 μl added to wells A4-B6 of plates RT and 37° C. 15 μl 1 mM hydrogen peroxide was diluted to […] with HBSS, and 90 μl added to wells A7-B9 of both plates. 90 μl of HBSS was added to wells A1-B3, and 90 μl of DMEM added to wells C1-D3 of both plates. 7.5 μl 1 mM hydrogen peroxide was diluted to 1.5 ml with DMEM, and 90 μl added to wells C4-D6 of both plates. 15 μl 1 mM hydrogen peroxide was diluted to 1.5 ml with DMEM and 90 μl added to wells C7-D9 of both plates.
10 μl samples of row A of plate “DISP” was transferred to rows A and C of plates RT and 37° C., and 10 μl of row B of plate “DISP” transferred to rows B and D of plates RT and 37° C. The 37° C. plate was incubated at 37° C., 5% CO2, with plate RT incubated at room temperature. Both plates were incubated for 30 minutes.
A conversion solution was made by mixing 7.5 ml of 1 M HEPES, pH 8.0, 7.4 ml Nanopure water and 100 μl 100 mM D cysteine. After mixing, 75 μl was added to all wells of a new luminometer plate.
After incubation, 25 μl from wells A1-D9 of the 37° C. plate was transferred to wells E1-H9 of the new luminometer plate, 25 μl of wells A1-D9 of the RT plate was transferred to wells A1-D9 of new luminometer plate, and the plate incubated at room temperature for 2-3 minutes. A 100 μl sample of LDR (Example 23) was added to wells A1-H9, incubated for 15 minutes at room temperature, and bioluminescence detected on a GloMax® luminometer. After reading, the duplicate wells were averaged, and the averaged values with peroxide addition were compared to those without peroxide (Table 11).

[2] = Background reduction of PBI 4472 with background reduction reagent (TCEP); type: biochemical; conditions: 50 μM, 100 mM Tris base pH 10.4, BRR (TCEP) versus untreated, FIG. 4
Procedure: PBI 4472 (50 μM) was incubated with assay buffer (100 mM Tris base, pH 10.4) for 15 minutes at room temperature. The samples were then either treated with a background reduction reagent (BRR; TCEP) or remained untreated. After a 15 minute incubation at room temperature, luciferin detection reagent with 1 mM D-cysteine (Promega Corporation) was added to the samples and incubated for 20 minutes at room temperature. Luminescence was detected on a Tecan F500 plate reader.

SMILES | Averaged Relative Light Unit Values ([1]; DMEM, 37 C. plate, 0 uM Per) | Averaged Relative Light Unit Values ([1]; DMEM, 37 C. plate, 5 uM Per) | Averaged Relative Light Unit Values ([1]; DMEM, 37 C. plate, 10 uM Per) | Averaged Relative Light Unit Values ([1]; DMEM, RT plate, 0 uM Per) | Averaged Relative Light Unit Values ([1]; DMEM, RT plate, 5 uM Per) | Averaged Relative Light Unit Values ([1]; DMEM, RT plate, 10 uM Per) | Averaged Relative Light Unit Values ([1]; HBSS, 37 C. plate, 0 uM Per) | Averaged Relative Light Unit Values ([1]; HBSS, 37 C. plate, 5 uM Per) | Averaged Relative Light Unit Values ([1]; HBSS, 37 C. plate, 10 uM Per) | Averaged Relative Light Unit Values ([1]; HBSS, RT plate, 0 uM Per) | Averaged Relative Light Unit Values ([1]; HBSS, RT plate, 5 uM Per) | Averaged Relative Light Unit Values ([1]; HBSS, RT plate, 10 uM Per) | background luminescence with reduction reagent (in words) [2]
CC1(C)OB(/C=C/COc2ccc3nc(C#N)sc3c2)OC1(C)C [PBI 4458, (E)-6-((3-(4,4,5,5-tetramethyl-1,3,2-dioxaborolan-2-yl)allyl)oxy)-benzo[d]thiazole-2-carbonitrile] | 986,772 Relative Light Unit | 5,686,033 Relative Light Unit | 12,130,782 Relative Light Unit | 2,075,191 Relative Light Unit | 8,556,256 Relative Light Unit | 16,016,143 Relative Light Unit | 434,728 Relative Light Unit | 2,791,805 Relative Light Unit | 4,912,905 Relative Light Unit | 853,268 Relative Light Unit | 6,111,214 Relative Light Unit | 10,641,411 Relative Light Unit | –
CC1(C)OB(c2ccc(COc3ccc4nc(C#N)sc4c3)cc2)OC1(C)C [PBI 4472, 6-((4-(4,4,5,5-tetramethyl-1,3,2-dioxaborolan-2-yl)benzyl)oxy)benzo-[d]thiazole-2-carbonitrile] | 400,077 Relative Light Unit | 3,083,589 Relative Light Unit | 5,340,569 Relative Light Unit | 921,496 Relative Light Unit | 4,304,645 Relative Light Unit | 8,071,553 Relative Light Unit | 44,007 Relative Light Unit | 424,851 Relative Light Unit | 715,803 Relative Light Unit | 103,738 Relative Light Unit | 1,106,195 Relative Light Unit | 2,058,421 Relative Light Unit | can reduce background
